Laboratory results taken from patent US7459450B2, “Neuropeptide receptor modulators” (Schering Corporation, priority 2004, dated 2008).

The molecules below were run against T1, Human NPY Y1 receptors (Homo sapiens, UniProt P25929) (assay: NPY Receptor Binding Assay). Details: not given.
T1 construct: expressed in transfected cells; host or cells: CHO cells (membrane protein)
T1 sequence (P25929 1-384): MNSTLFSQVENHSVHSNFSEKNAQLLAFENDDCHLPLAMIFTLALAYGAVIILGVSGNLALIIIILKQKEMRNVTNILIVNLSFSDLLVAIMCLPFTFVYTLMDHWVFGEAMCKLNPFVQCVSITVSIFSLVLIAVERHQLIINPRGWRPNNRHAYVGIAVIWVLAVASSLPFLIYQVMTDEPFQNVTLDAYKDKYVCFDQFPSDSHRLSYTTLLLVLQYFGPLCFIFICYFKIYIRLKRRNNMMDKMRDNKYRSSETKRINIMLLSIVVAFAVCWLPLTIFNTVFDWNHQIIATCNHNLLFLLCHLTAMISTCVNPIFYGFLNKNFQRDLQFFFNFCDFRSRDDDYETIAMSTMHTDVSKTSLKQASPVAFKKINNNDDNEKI
Method: NPY Receptor Binding Assay
Human NPY Y1 receptors were expressed in CHO cells. Binding assays were performed in 50 mM HEPES, pH 7.2, 2.5 mM CaCl2, 1 mM MgCl2 and 0.1% BSA containing 5-10 μg of membrane protein and 0.1 nM […] in a total volume of 200 μl. Non-specific binding was determined in the presence of 1 μM NPY. The reaction mixtures were incubated for 90 minutes at room temperature then filtered through Millipore MAFC glass fiber filter plates which had been pre-soaked in 0.5% polyethleneimine. The filters were washed with phosphate-buffered saline, and radioactivity was measured in a Packard TopCount scintillation counter.

Row | Compound | Ki [µM]
1 | O=C1S/C(=N/c2ccccc2CCNc2nc3ccccc3s2)N[C@H]1Cc1ccccc1 [Example 410] | > 10
2 | COc1cccc2sc(NCCc3ccc(/N=C4/N[C@@H](CC(C)C)C(=O)S4)cc3)nc12 [Example 364] | > 10
3 | O=C1S/C(=N\c2ccc(CCNc3nc4ccc(F)cc4s3)cc2)N[C@H]1Cc1ccccc1 [Example 373] | > 10
4 | Cc1ccc2nc(NCCc3ccc(/N=C4/N[C@@H](CC(C)C)C(=O)S4)cc3)sc2c1 [Example 351] | > 10
5 | O=C(O)C[C@@H]1N/C(=N/c2ccc(CCNc3nc4ccc(F)cc4s3)cc2)SC1=O [Example 402] | > 10
6 | O=C1S/C(=N/c2cccc(CCNc3nc4ccccc4s3)c2)N[C@H]1Cc1ccccc1 [Example 406] | > 10
7 | CC(C)[C@@H]1N/C(=N/c2ccc(CCNc3nc4ccc(S(C)(=O)=O)cc4s3)cc2)SC1=O [Example 359] | > 10
8 | O=C(O)C[C@@H]1N/C(=N/c2ccc(CCNc3nc4ccccc4s3)cc2)SC1=O [Example 399] | > 10
9 | O=C1S/C(=N\c2ccc(CCNc3nc4cc(Cl)c(Cl)cc4s3)cc2)N2CCC[C@@H]12 [Example 390] | > 10
10 | O=C1S/C(=N/c2ccccc2CCNc2nc3ccccc3s2)N2CCC[C@@H]12 [Example 405] | > 10
11 | O=C1S/C(=N\c2ccc(CCNc3nc4ccc(Cl)cc4s3)cc2)N[C@H]1Cc1ccccc1 [Example 382] | > 10
12 | CSCC[C@@H]1N/C(=N/c2ccc(CCNc3nc4ccc(C)cc4s3)cc2)SC1=O [Example 357] | 1 to 10
13 | CC(C)C[C@@H]1N/C(=N/c2ccc(CCNc3nc4ccc(S(C)(=O)=O)cc4s3)cc2)SC1=O [Example 389] | > 10
14 | C[C@@H]1N/C(=N/c2ccc(CCNc3nc4ccc([N+](=O)[O-])cc4s3)cc2)SC1=O [Example 343] | > 10
15 | Cc1cccc2sc(NCCc3ccc(/N=C4/N[C@@H](C(C)C)C(=O)S4)cc3)nc12 [Example 371] | > 10

Same assay, conditions: Procedure A compounds, rated A/B/C

Row | Compound | Ki [µM]
16 | Clc1ccc2nc(NCCc3ccc(NC4=NCCS4)cc3)sc2c1 [Example 19] | 1 to 10
17 | c1ccc2sc(NCCc3ccc(N(C4=NCCS4)C4=NCCS4)cc3)nc2c1 [Example 14] | > 10
18 | O=[N+]([O-])c1ccc2nc(NCCc3ccc(NC4=NCCS4)cc3)sc2c1 [Example 18] | 1 to 10
19 | Fc1ccc2nc(NCCc3ccc(NC4=NCCS4)cc3)sc2c1 [Example 21] | 1 to 10
20 | c1ccc(NC2=NCCS2)c(CCNc2nc3ccccc3s2)c1 [Example 24] | > 10

Same assay, conditions: Procedure B compounds, rated A/B/C

Row | Compound | Ki [µM]
21 | CCC1CN(C(=O)c2ccccc2)C(Nc2ccc(CCNc3nc4ccccc4s3)cc2)=N1 (stereo not shown) [Example 33] | > 10

Same assay, conditions: Procedure C compounds, rated A/B/C

Row | Compound | Ki [µM]
22 | CC[C@H](C)[C@@H]1N=C(Nc2ccc(CCNc3nc4ccccc4s3)cc2)N(C(=O)c2ccccc2)C1=O [Example 52] | > 10
23 | O=C(O)CC[C@@H]1N=C(Nc2ccc(CCNc3nc4ccccc4s3)cc2)N(C(=O)c2ccccc2)C1=O [Example 51] | > 10
24 | O=C(O)C[C@@H]1N=C(Nc2ccc(CCNc3nc4ccccc4s3)cc2)N(C(=O)c2ccccc2)C1=O [Example 49] | > 10

Same assay, conditions: Procedure E compounds, rated A/B/C

Row | Compound | Ki [µM]
25 | Fc1ccc2nc(NCCc3ccc(/N=C4/NCCCS4)cc3)sc2c1 [Example 211] | < 1
26 | Cc1ccc2nc(NCCc3ccc(/N=C4\SC5Cc6ccccc6[C@@H]5N4C4CC4)cc3)sc2c1 (stereo partly shown) [Example 224] | > 10
27 | Clc1ccc2nc(NCCc3ccc(/N=C4/NC(c5ccccc5)CCS4)cc3)sc2c1 (stereo not shown) [Example 212] | < 1
28 | COc1ccc2nc(NCCc3ccc(/N=C4/N[C@@H](C(C)C)CS4)cc3)sc2c1 [Example 216] | 1 to 10
29 | Cc1ccc2nc(NCCc3ccc(/N=C4\SC[C@@H]5CCCN45)cc3)sc2c1 [Example 89] | > 10
30 | COc1cccc2sc(NCCc3ccc(/N=C4/N[C@H]5c6ccccc6CC5S4)cc3)nc12 (stereo partly shown) [Example 325] | > 10
31 | C[C@@H]1CS/C(=N\c2ccc(CCNc3nc4ccc(S(C)(=O)=O)cc4s3)cc2)N1 [Example 114] | 1 to 10
32 | CC1CN/C(=N/c2ccc(CCNc3nc4ccc(F)cc4s3)cc2)S1 (stereo not shown) [Example 330] | > 10
33 | c1ccc2c(CC3CSC(Nc4ccc(CCNc5nc6ccccc6s5)cc4)=N3)cccc2c1 (stereo not shown) [Example 336] | > 10
34 | Cc1ccc2nc(NCCc3ccc(N=C4NCCCS4)cc3)sc2c1 [Example 205] | < 1
35 | c1ccc(/N=C2\NCCCS2)c(CCNc2nc3ccccc3s2)c1 [Example 68] | > 10
36 | c1ccc(C2CCS/C(=N/c3cccc(CCNc4nc5ccccc5s4)c3)N2)cc1 (stereo not shown) [Example 71] | > 10
37 | c1cc(CCNc2nc3ccccc3s2)cc(/N=C2\NCCCS2)c1 [Example 69] | > 10
38 | Clc1cccc(C2CCSC(Nc3ccc(CCNc4nc5ccccc5s4)cc3)=N2)c1 (stereo not shown) [Example 198] | < 1
39 | CCCC1CS/C(=N\c2ccc(CCNc3nc4ccc(S(C)(=O)=O)cc4s3)cc2)N1 (stereo not shown) [Example 249] | 1 to 10
40 | CC1(C)CS/C(=N\c2ccc(CCNc3nc4ccccc4s3)cc2)N1 [Example 272] | < 1
41 | CC1(C)CS/C(=N\c2ccc(CCNc3nc4ccc([N+](=O)[O-])cc4s3)cc2)N1 [Example 76] | > 10
42 | COc1ccc2nc(NCCc3ccc(/N=C4/N[C@@H](c5ccccc5)CS4)cc3)sc2c1 [Example 217] | > 10
43 | Cc1ccc2nc(NCCc3ccc(/N=C4\SCCN4C)cc3)sc2c1 [Example 86] | > 10
44 | C=C(C)CN1/C(=N/c2ccc(CCNc3nc4ccc(C)cc4s3)cc2)SC2Cc3ccccc3[C@@H]21 (stereo partly shown) [Example 225] | > 10
45 | COc1cccc2sc(NCCc3ccc(/N=C4/NCCCS4)cc3)nc12 [Example 207] | > 10
46 | CCCCC1CS/C(=N\c2ccc(CCNc3nc4ccc(C)cc4s3)cc2)N1 (stereo not shown) [Example 92] | 1 to 10
47 | CC[C@@H]1CS/C(=N\c2ccc(CCNc3nc4ccc(Cl)cc4s3)cc2)N1 [Example 110] | < 1
48 | COc1ccc2nc(NCCc3ccc(/N=C4/NCC(C)S4)cc3)sc2c1 (stereo not shown) [Example 322] | > 10
49 | Cc1ccc2nc(NCCc3ccc(/N=C4/NCC(C)S4)cc3)sc2c1 (stereo not shown) [Example 324] | > 10

Same assay, conditions: Procedure G compounds, rated A/B/C

Row | Compound | Ki [µM]
50 | COC(=O)Cc1csc(Nc2ccc(CCNc3nc4ccccc4s3)cc2)n1 [Example 431] | > 10
51 | CCOC(=O)c1sc(Nc2ccc(CCNc3nc4ccccc4s3)cc2)nc1C [Example 427] | > 10
52 | c1ccc(-c2nc(Nc3ccc(CCNc4nc5ccccc5s4)cc3)sc2-c2ccccc2)cc1 [Example 421] | > 10
53 | Cc1csc(Nc2ccc(CCNc3nc4ccccc4s3)cc2)n1 [Example 415] | > 10
54 | Fc1ccc(-c2csc(Nc3ccc(CCNc4nc5ccccc5s4)cc3)n2)cc1 [Example 420] | > 10
55 | CC(C)(C)c1csc(Nc2ccc(CCNc3nc4ccccc4s3)cc2)n1 [Example 433] | > 10

Same assay, conditions: Procedure H compounds, rated A/B/C

Row | Compound | Ki [µM]
56 | CCCCCC1SC(Nc2ccc(CCNc3nc4ccccc4s3)cc2)=NC1=O (stereo not shown) [Example 447] | > 10
57 | CCCCC1SC(Nc2ccc(CCNc3nc4ccccc4s3)cc2)=NC1=O (stereo not shown) [Example 442] | > 10
58 | CC(O)CC1SC(Nc2ccc(CCNc3nc4ccccc4s3)cc2)=NC1=O (stereo not shown) [Example 440] | > 10

Same assay, conditions: Table 1, rated A/B/C

Row | Compound | Ki [µM]
59 | c1ccc(C2CCCC(Nc3ccc(CCNc4nc5ccccc5s4)cc3)=N2)cc1 (stereo not shown) [Example 6] | < 1
60 | c1ccc(CCC2CCSC(Nc3ccc(CCNc4nc5ccccc5s4)cc3)=N2)cc1 (stereo not shown) [Example 13] | < 1
61 | c1ccc([C@H]2CSC(Nc3ccc(CCNc4nc5ccccc5s4)cc3)=N2)cc1 [Example 8] | 1 to 10
